Test system: enterotoxins
Format: binding, Staphylococcus aureus

## CCCCCCCCN [n-octylamine]
  adsorptive affinity for enterotoxins: phenomenal increase in the adsorptive affinity for enterotoxins
